In a compilation of properties of binary mixtures (doi:10.1021/je200600p):

Test: xn = mol fraction of the nth substance listed
Conditions: 101 kPa

CCCC[n+]1ccn(C)c1.COP(=O)([O-])OC + CCO
viscosity [mPa·s]
Conditions | 293.15 K | 298.15 K | 303.15 K | 308.15 K | 313.15 K | 318.15 K | 323.15 K | 328.15 K | 333.15 K
x2 = 0.201 | 396 | 284 | 210 | – | 119 | 92.7 | 73.3 | 59.06 | 48.16
x2 = 0.399 | – | – | 88.9 | 69.9 | – | – | – | – | –
x2 = 0.6 | 42.1 | 34.3 | 28.18 | 23.56 | 19.87 | 16.97 | 14.59 | 12.66 | 11.06
x2 = 0.8 | 8.84 | 7.704 | 6.718 | – | – | 4.711 | – | – | 3.454

CC[n+]1ccn(C)c1.COP(=O)([O-])OC + CCO
viscosity [mPa·s]
Conditions | 293.15 K | 298.15 K | 303.15 K | 308.15 K | 313.15 K | 318.15 K | 323.15 K | 328.15 K | 333.15 K
x2 = 0.199 | 190.6 | 142.7 | 109.5 | 85.8 | 68.4 | 55.53 | 45.75 | – | 32.27
x2 = 0.398 | 87.3 | – | – | 45 | 37.37 | – | 26.44 | 22.64 | 19.56
x2 = 0.598 | 27.63 | – | 19.83 | 17.05 | 14.8 | – | 11.36 | 10.04 | 8.951
x2 = 0.798 | 6.898 | 6.127 | 5.471 | – | 4.425 | 4.004 | 3.634 | 3.318 | 3.037

CCCC[n+]1ccn(C)c1.COP(=O)([O-])OC + CO
viscosity [mPa·s]
Conditions | 293.15 K | 298.15 K | 303.15 K | 308.15 K | 313.15 K | 318.15 K | 323.15 K | 328.15 K | 333.15 K
x2 = 0.203 | 395 | 282 | 206 | 154.4 | 117.9 | 91.5 | 72.5 | 58.3 | 47.6
x2 = 0.404 | 150.1 | 113.3 | 87.5 | – | 54.86 | – | 36.49 | 30.37 | 25.51
x2 = 0.6 | 38.6 | 31.59 | 26.19 | 21.99 | 18.59 | 15.94 | 13.78 | 11.99 | 10.48
x2 = 0.8 | – | 6.267 | 5.536 | 4.923 | – | 3.972 | 3.665 | 3.338 | 3.051

CC[n+]1ccn(C)c1.COP(=O)([O-])OC + CO
viscosity [mPa·s]
Conditions | 293.15 K | 298.15 K | 303.15 K | 308.15 K | 313.15 K | 318.15 K | 323.15 K | 328.15 K | 333.15 K
x2 = 0.198 | 197.6 | 147.8 | 112.7 | 88 | 70.2 | 56.83 | 46.73 | 39.02 | 32.96
x2 = 0.399 | 77.9 | 61.74 | 49.69 | 40.72 | 33.84 | 28.41 | 24.24 | – | –
x2 = 0.598 | 24.32 | – | 17.64 | 15.26 | 13.28 | 11.67 | 10.3 | 9.132 | 8.188
x2 = 0.799 | 5.308 | 4.769 | 4.309 | 3.911 | 3.566 | – | 2.998 | 2.763 | 2.555

CCCC[n+]1ccn(C)c1.COP(=O)([O-])OC + O
viscosity [mPa·s]
Conditions | 293.15 K | 298.15 K | 303.15 K | 308.15 K | 313.15 K | 318.15 K | 323.15 K | 328.15 K | 333.15 K
x2 = 0.201 | 594 | 410 | – | 212 | 157.5 | 119.7 | 92.7 | 73.1 | 58.55
x2 = 0.398 | 356 | – | 181.6 | 134.7 | 102 | – | 62.07 | – | 40.4
x2 = 0.601 | 148.3 | 108.5 | – | 62.54 | 48.93 | 39.05 | 31.67 | 26.05 | 21.69
x2 = 0.799 | 39.94 | 30.68 | 24.17 | 19.42 | – | 13.14 | 11.05 | 9.37 | 8.037

CC[n+]1ccn(C)c1.COP(=O)([O-])OC + O
viscosity [mPa·s]
Conditions | 293.15 K | 298.15 K | 303.15 K | 308.15 K | 313.15 K | 318.15 K | 323.15 K | 328.15 K | 333.15 K
x2 = 0.198 | – | – | – | 119.7 | 93 | – | 59.37 | 48.61 | –
x2 = 0.399 | 194.9 | 143.4 | 108.1 | 83.5 | 65.74 | – | 42.99 | – | 29.81
x2 = 0.6 | 98.6 | 74.5 | 57.7 | 45.45 | 36.43 | 29.68 | 24.55 | 20.58 | 17.46
x2 = 0.799 | 32.35 | 25.47 | 20.44 | 16.68 | 13.81 | – | 9.81 | 8.405 | 7.264
